Assay results: BindingDB's records for PubMed 8510008 (Eli Lilly, 1993)

Tests used:
[1] = molecular target: T1, 5-hydroxytryptamine receptor 2C (Homo sapiens, UniProt P28335)
T1 sequence (P28335 whole entry): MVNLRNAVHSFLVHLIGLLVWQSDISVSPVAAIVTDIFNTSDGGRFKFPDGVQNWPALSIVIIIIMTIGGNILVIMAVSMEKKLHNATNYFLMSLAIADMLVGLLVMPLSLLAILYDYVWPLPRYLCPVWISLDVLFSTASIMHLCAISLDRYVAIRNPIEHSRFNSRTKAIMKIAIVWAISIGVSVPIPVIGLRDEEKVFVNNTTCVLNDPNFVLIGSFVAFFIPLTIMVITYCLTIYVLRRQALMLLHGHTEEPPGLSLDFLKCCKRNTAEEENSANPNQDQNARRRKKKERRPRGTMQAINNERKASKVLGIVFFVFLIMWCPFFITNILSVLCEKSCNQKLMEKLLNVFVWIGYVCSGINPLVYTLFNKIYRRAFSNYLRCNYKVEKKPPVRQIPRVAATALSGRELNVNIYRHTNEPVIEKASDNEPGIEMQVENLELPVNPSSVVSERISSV

[2] = molecular target: 5-hydroxytryptamine receptor 2A (Rattus norvegicus, UniProt P14842)
[3] = molecular target: 5-hydroxytryptamine receptor 2A (Sus scrofa, UniProt P50129)
[4] = molecular target: 5-hydroxytryptamine receptor 2A (Macaca mulatta, UniProt P50128)
5-hydroxytryptamine receptor 2A (Macaca mulatta, UniProt P50128), sequence (P50128 whole entry): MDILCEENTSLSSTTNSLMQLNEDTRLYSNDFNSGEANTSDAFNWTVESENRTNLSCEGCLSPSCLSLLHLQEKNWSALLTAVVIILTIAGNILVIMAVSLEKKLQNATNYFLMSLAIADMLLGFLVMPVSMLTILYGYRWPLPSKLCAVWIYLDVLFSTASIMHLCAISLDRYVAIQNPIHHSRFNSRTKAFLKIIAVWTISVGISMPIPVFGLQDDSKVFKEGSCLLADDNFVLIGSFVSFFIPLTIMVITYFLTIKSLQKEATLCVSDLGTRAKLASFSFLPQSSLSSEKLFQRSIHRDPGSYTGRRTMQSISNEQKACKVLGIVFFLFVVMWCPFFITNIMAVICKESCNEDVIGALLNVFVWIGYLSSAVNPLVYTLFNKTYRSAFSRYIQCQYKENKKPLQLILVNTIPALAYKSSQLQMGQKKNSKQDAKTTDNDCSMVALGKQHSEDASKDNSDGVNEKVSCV

5-hydroxytryptamine receptor 2A (Sus scrofa, UniProt P50129), sequence (P50129 whole entry): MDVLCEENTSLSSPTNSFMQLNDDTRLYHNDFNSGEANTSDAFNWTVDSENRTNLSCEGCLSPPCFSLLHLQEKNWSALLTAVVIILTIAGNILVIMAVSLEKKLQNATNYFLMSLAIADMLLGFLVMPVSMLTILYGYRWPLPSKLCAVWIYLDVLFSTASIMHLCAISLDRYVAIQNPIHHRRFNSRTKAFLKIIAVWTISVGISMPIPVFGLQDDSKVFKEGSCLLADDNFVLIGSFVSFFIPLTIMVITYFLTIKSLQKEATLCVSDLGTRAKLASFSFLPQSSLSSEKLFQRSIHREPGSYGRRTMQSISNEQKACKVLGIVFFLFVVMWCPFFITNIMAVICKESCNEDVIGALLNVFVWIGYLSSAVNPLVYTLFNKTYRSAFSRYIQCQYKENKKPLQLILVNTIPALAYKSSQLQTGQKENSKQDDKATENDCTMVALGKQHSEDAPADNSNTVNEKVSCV
5-hydroxytryptamine receptor 2A (Rattus norvegicus, UniProt P14842), sequence (P14842 whole entry): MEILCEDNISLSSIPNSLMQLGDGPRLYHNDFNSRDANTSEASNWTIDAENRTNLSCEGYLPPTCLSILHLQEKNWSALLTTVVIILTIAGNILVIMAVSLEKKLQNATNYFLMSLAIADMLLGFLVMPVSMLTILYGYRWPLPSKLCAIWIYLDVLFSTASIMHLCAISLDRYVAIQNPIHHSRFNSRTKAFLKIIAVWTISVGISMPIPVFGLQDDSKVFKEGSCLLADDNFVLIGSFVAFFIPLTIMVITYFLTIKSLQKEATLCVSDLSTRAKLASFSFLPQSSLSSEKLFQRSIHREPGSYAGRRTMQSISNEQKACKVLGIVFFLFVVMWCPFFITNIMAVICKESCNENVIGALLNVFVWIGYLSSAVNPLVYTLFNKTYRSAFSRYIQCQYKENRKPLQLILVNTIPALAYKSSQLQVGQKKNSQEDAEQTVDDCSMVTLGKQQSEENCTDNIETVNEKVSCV

SMILES: NCCc1c[nH]c2ccc(Br)cc12
- Ki [1]: 1.52 µM
- Ki [2]: 3.24 µM

SMILES: CC(O)C(C)OC(=O)[C@@H]1C[C@@H]2c3cccc4c3c(cn4C)C[C@H]2N(C)C1 (stereo partly specified) [1,6-Dimethylergoline-8-carboxylic acid 2-hydroxy-1-methylpropyl ester]
- Ki [3]: 0.0572 µM
- Ki [4]: 0.0568 µM
- Ki [2]: 0.0093 µM

SMILES: COc1ccc2c(c1)c(CCN)cn2C(C)C [1-Isopropyl-5-Methoxytryptamine]
- Ki [3]: 7.29 µM
- Ki [2]: 3.56 µM

SMILES: Cc1ccc2c(c1)c(CCN)cn2C(C)C [1-Isopropyl-5-Methyltryptamine]
- Ki [1]: > 10 µM
- Ki [2]: 4.68 µM

SMILES: CC(C)n1cc(CCN)c2ccccc21 [1-Isopropyltryptamine]
- Ki [3]: 5.72 µM
- Ki [1]: 7.03 µM
- Ki [2]: 3.86 µM

SMILES: NCCc1c[nH]c2ccccc12 [1H-indole-3-ethanamine]
- Ki [3]: 3.39 µM
- Ki [1]: 3 µM
- Ki [2]: > 10 µM

SMILES: CC(C)n1cc(CCN)c2cc(Br)ccc21 [5-Br-T, 1-Isopropyl]
- Ki [1]: 6.24 µM
- Ki [2]: 3.44 µM

SMILES: Cc1ccc2[nH]cc(CCN)c2c1 [5-Methyl-tryptamine, 10]
- Ki [1]: 3.22 µM
- Ki [2]: 6.15 µM

SMILES: CC(CO)NC(=O)C1C=C2c3cccc4[nH]cc(c34)CC2N(C)C1 (stereo unspecified) [CAS_60-79-7]
- Ki [3]: 0.0038 µM
- Ki [4]: 0.0034 µM
- Ki [1]: 0.0311 µM
- Ki [2]: 0.0464 µM

SMILES: CC(O)C(C)OC(=O)C1CC2c3cccc4c3c(cn4C(C)C)CC2N(C)C1 (stereo unspecified) [CAS_60634-51-7]
- Ki [3]: 0.04 µM
- Ki [4]: 0.0331 µM
- Ki [1]: 0.0306 µM
- Ki [2]: 0.0072 µM

SMILES: CC(O)C(C)OC(=O)C1CC2c3cccc4[nH]cc(c34)CC2N(C)C1 (stereo unspecified) [LY86057]
- Ki [3]: 0.0046 µM
- Ki [4]: 0.0032 µM
- Ki [1]: 0.0033 µM
- Ki [2]: 0.0559 µM

SMILES: CN1C[C@H](C(=O)NC2CCCCC2)C[C@@H]2c3cccc4[nH]cc(c34)C[C@H]21 [LY-193525]
- Ki [3]: 0.0036 µM
- Ki [4]: 0.0021 µM
- Ki [2]: 0.0416 µM

SMILES: CC(C)Cn1cc2c3c(cccc31)[C@H]1C[C@@H](C(=O)OC(C)C(C)O)CN(C)[C@@H]1C2 (stereo partly specified) [LY-197541]
- Ki [3]: 0.148 µM
- Ki [4]: 0.153 µM
- Ki [2]: 0.242 µM

SMILES: COC1CCC(OC(=O)[C@@H]2C[C@@H]3c4cccc5[nH]cc(c45)C[C@H]3N(C)C2)CC1 (stereo partly specified) [LY-254239]
- Ki [2]: 0.042 µM

SMILES: CN1C[C@@H](NS(=O)(=O)N(C)C)C[C@@H]2c3cccc4c3c(cn4C)C[C@H]21 [MESULERGINE]
- Ki [3]: 0.0542 µM
- Ki [4]: 0.0449 µM

SMILES: CN1C[C@H](CNC(=O)OCc2ccccc2)C[C@@H]2c3cccc4c3c(cn4C)C[C@H]21 [METERGOLINE]
- Ki [3]: 0.00037 µM
- Ki [4]: 0.00082 µM

SMILES: CN1C[C@H](C(=O)N[C@@H]2CCC[C@@H]2O)C[C@@H]2c3cccc4[nH]cc(c34)C[C@H]21 [N-[(1R,2S)-2-Hydroxycyclopentyl]-6-methylergoline-8-beta-carboxamide]
- Ki [2]: 0.0644 µM

SMILES: COC1CCC(OC(=O)C2CC3c4cccc5c4c(cn5C(C)C)CC3N(C)C2)CC1 (stereo unspecified) [NSC_60262]
- Ki [2]: 0.0109 µM

SMILES: CC(C)n1cc2c3c(cccc31)C1CC(C(=O)NC3CCCCC3)CN(C)C1C2 (stereo unspecified) [NSC_60740]
- Ki [3]: 0.0307 µM
- Ki [4]: 0.0265 µM
- Ki [2]: 0.0069 µM

SMILES: CC(C)n1cc2c3c(cccc31)C1CC(C(=O)NC3CCCC3O)CN(C)C1C2 (stereo unspecified) [NSC_132049]
- Ki [1]: 0.0277 µM
- Ki [2]: 0.0058 µM

SMILES: COc1ccc2[nH]cc(CCN)c2c1 [tryptamine, 5-Methoxy]
- Ki [3]: 0.923 µM
- Ki [1]: 0.943 µM
